These results are taken from patent publication US20060205826A1, “Method of using carotenoids in the prevention of cognitive decline and for other neuroprotection functions” (priority 2005, published 2006).

The test system of assay [1] is MDA, a lipid peroxidation product. In words: MDA concentration by liquid chromatography in serum, eye and hippocampus of diabetic mice. The format is in vivo. The protocol:
Male albino mice were used throughout the study, housed in a environmentally regulated room on a dark-light cycle of 12 hours with free access to food and water. Principles of laboratory animal care (NIH publication no. 85-23, revised 1985) were followed, as well as specific Spanish regulations. Animals were made diabetic with a single subcutaneous injection of 200 mg alloxan/kg body weight (66 mg/ml) in 0.1 M citrate buffer, pH 4.5, at day 0 of the experiment. Control mice were injected with the same volume of vehicle also at day 0 of the experiment.
Mice were identified as diabetic on the basis of blood glucose levels (higher than 16 mM at least 4 days after alloxan treatment). Animals were divided into subgroups as required by the experiment (control, control+lutein, diabetic, diabetic+lutein, diabetic+insulin, diabetic+insulin+lutein). […] Insulin treated animals were injected daily with 500 mU/g body weight since day 4 until the end of the experiment. Mice were killed by cervical dislocation on day 14, and hippocampus and retina were removed and homogenized in pre-chilled 0.2 M potassium phosphate buffer, pH 7.0. These homogenates were used to assay protein, GPx activity and MDA and GSH concentrations. Samples were kept frozen (−80° C.) until biochemical assays were performed. Blood was taken from the tail vein daily to assay blood glucose levels. Glycated hemoglobin was determined in blood samples obtained by heart puncture immediately before killing the animals.
MDA, a lipid peroxidation product, concentration was measured by liquid chromatography according to a modification of the method of Richard et al. (1992) as previously described (Romero et al., 1998). Briefly, 0.1 ml of sample (or standard solutions prepared daily from 1,1,3,3-tetramethoxypropane) and 0.75 ml of working solution (thiobarbituric acid 0.37% and perchloric acid 6.4%; 2/1, v/v) were mixed and heated to 95° C. for 1 h. After cooling (10 min in ice water bath), the flocculent precipitate was removed by centrifugation at 3,200×g for 10 min. The supernatant was neutralized and filtered (0.22 μm) prior to injection on an ODS column 5 μm column (250×4.6 mm). Mobile phase consisted in 50 mM phosphate buffer (pH 6.0): methanol (58:42, v/v). Isocratic separation was performed with 1.0 ml/min flow (HPLC System 325, Kontron) and detection at 532 nm (UV/VIS HPLC Detector 332, Kontron). Calibration curves were run daily.

In assay [2] the test system is NF-κB. The assay is described as follows: NF-κB activity (TransAm Kit) in retina and hippocampus of diabetic mice. The format is in vivo. Conditions: 15 days post alloxan, lutein treatment before and after diabetes induction. The procedure:
Male albino mice were used throughout the study, housed in a environmentally regulated room on a dark-light cycle of 12 hours with free access to food and water. Principles of laboratory animal care (NIH publication no. 85-23, revised 1985) were followed, as well as specific Spanish regulations. Animals were made diabetic with a single subcutaneous injection of 200 mg alloxan/kg body weight (66 mg/ml) in 0.1 M citrate buffer, pH 4.5, at day 0 of the experiment. Control mice were injected with the same volume of vehicle also at day 0 of the experiment. Mice were identified as diabetic on the basis of blood glucose levels (higher than 16 mM at least 4 days after alloxan treatment). Animals were divided into subgroups as required by the experiment (control, control+lutein, diabetic, diabetic+lutein, diabetic+insulin, diabetic+insulin+lutein). […] Insulin treated animals were injected daily with 500 mU/g body weight since day 4 until the end of the experiment. Mice were killed by cervical dislocation on day 14, and hippocampus and retina were removed and homogenized in pre-chilled 0.2 M potassium phosphate buffer, pH 7.0. […] Glycated hemoglobin was determined in blood samples obtained by heart puncture immediately before killing the animals. NF-κB activity was determined with TransAm Kit (Active Motif) that combines an ELISA test with an specific assay for transcription factors. […]

Assay [3] concerns hippocampal stem cells. In words: Hippocampal neurogenesis (BrdU immunostaining, cell counting) in diabetic mice. The format is in vivo. The settings on record: two weeks after the induction of diabetes, preliminary data. An excerpt: All animals were killed with a barbiturate overdose; each group had n>8. After intracardial perfusion with 4% paraformaldehyde, brains were cut into 40-μm-thick sections (200 μm, 1 every sixth section, used for electron microscopy analysis) with a vibratome (Leica VT100M).
Sections were immersed free-floating in 0.1 M phosphate buffer plus 0.05 % sodium azide. Twenty-four-well plates were used to keep the sections separate and preserve the order of the series. Sections that were 40 μm thick were used for cell counting. Incubations were performed in 0.1 M phosphate buffer with 0.2% Triton X-100 and 10% normal goat serum. Sections were blocked by incubating for 30 min in a solution of 3% hydrogen peroxide for diaminobenzidine (Sigma) staining. BrdU immunohistochemistry was preceded with DNA denaturation of 25 min of incubation in 2 M HCl at 37° C. The primary antibodies used were 1:200 mouse anti-BrdU (Dako). […]
Cell Counting. BrdU-positive cells were counted in sections spaced 400 μm apart by using a Nikon Eclipse E200 with a Nikon 40X Plan objective (0.65 numerical aperture) throughout the granule cell layer. […] Data were expressed as total, for the whole structure, and also subanalyzed in three regions: anterior, middle, and posterior.

Assay [4] has as its system alloxan diabetic mice. The settings on record: diabetic animals; Miranda et al., 2004; cited from earlier work.
The mark [5] stands for this setting: lutein 100 mg/kg p.o. or insulin 500 mU/g body weight s.c. on days 4-13.

Structures are written as SMILES. Entries after “also recorded” stand apart in the source; their conditions may differ.

On to `CC1=C[C@H](O)CC(C)(C)[C@H]1/C=C/C(C)=C/C=C/C(C)=C/C=C/C=C(C)/C=C/C=C(C)/C=C/C1=C(C)C[C@@H](O)CC1(C)C` [Lutein], for which, in assay [1] (lutein 0.2 mg/kg p.o. or insulin 500 mU/g body weight s.c. on days 4-13), the “MDA levels in hippocampus” value is reported as “restored”. Further, the “MDA levels in hippocampus” value in assay [1] (lutein 0.2 mg/kg p.o. or insulin 500 mU/g body weight s.c. on days 4-13, listed as lutein) is reported as “able to prevent this effect”. For the same molecule, in assay [1] (setting [5]), the “MDA levels in ocular tissue” value was “restored” and the “MDA levels in serum” value is on record as “restored”. Further, in assay [1] (lutein 100 mg/kg p.o. or insulin 500 mU/g body weight s.c. on days 4-13, listed as lutein), the “MDA levels in ocular tissue” value was “able to prevent this effect”. In assay [2], the “NF-κB expression in hippocampus” value is “decreased” and the “NF-κB expression in retina” value is recorded as “decreased”. Also, in assay [3], the “proliferation of hippocampal stem cells” value is “able to prevent the impairment in proliferation; also recorded: able to restore this alteration”. In assay [4], the “b-wave amplitude of the electroretinogram” value is recorded as “restored”.
